Experimental data from patent US6420174B1, “Method of producing organogenetic tissue from a plant of the genus Mentha” (Council of Scientific and Industrial Research, priority 2000, dated 2002).

Columns and labels:
Internodes = assay: Response of other explants in different media: internodes; assay type: cell-based, Mentha arvensis; details: 7 days
Method: (§1) In the next phase, the callus was sub cultured in three different media: i) the basal medium MSO containing only the vitamins and minerals without any growth hormones; ii) MSA-2 medium which is MSO with 0.2 μg ml^−1 concentration of NAA and 5 μg ml^−1 of a cytokinin BAP; and iii) MT-80 medium which is MSO with only 80 μg ml^−1 menthol. On each kind of these media, an independent callus (50 mg ) or 5 independently regenerated shoots were inoculated per flask in 5 replications each. The experiment was conducted in the completely randomized design (CRD) fashion. Cultures were incubated and maintained at 25±2° C. and 400-600 lux light intensity with 16-hour photoperiod. The response was recorded every 24 hours over a period of one week and then weekly upto one month.
(§2) At this stage, the applicants wanted to know whether any other parts of the plant (explants) show similar response as callus and lead to direct regeneration. In the same experimental design we inoculated different parts of the plant in different media and the observations were recorded after 7 and 15 days.

[1] = test system: regenerated shoots of Mentha arvensis; assay: Response of regenerated shoots in different media; assay type: cell-based; details: Mentha arvensis L. cv. Himalaya, 7 days
Excerpt: (§3) The plant variety used in these experiments was cv. Himalaya (U.S. Pat No. PP10935) of Mentha arvensis L. (2n=96). The suckers of M. arvensis L. cv. Himalaya for multiplication of the plant material and future experimentation were obtained from CIMAP's gene bank. For callus production, the explant material was collected from the field grown plants and surface sterilized by washing sequentially with 2% detergent, distilled water containing a few drops of Savlon (Johnson and Johnson, India), 0 1% acidified mercuric chloride and autoclaved distilled water before inoculation. About 1 cm long internode pieces were inoculated in the Murashige and Skoog medium (Murashige T, Skoog F; 1962. A revised medium for rapid growth and bioassay with tobacco tissue cultures. Physiol Planta, 15:473-497) supplemented with 0.2 μg ml^−1 of an auxin (NAA, 1-napthalene acetic acid) and 5 μg ml^−1 of a cytokinin (BAP, benzyl aminopurine). […]
(§4) In the next phase, the callus was sub cultured in three different media: i) the basal medium MSO containing only the vitamins and minerals without any growth hormones; ii) MSA-2 medium which is MSO with 0.2 μg ml^−1 concentration of NAA and 5 μg ml^−1 of a cytokinin BAP; and iii) MT-80 medium which is MSO with only 80 μg ml^−1 menthol. […] The response was recorded every 24 hours over a period of one week and then weekly upto one month. […]

regenerated shoots = assay: Characteristics and growth of regenerated shoots (leaf dimensions); assay type: cell-based, Mentha arvensis; details: medium containing 80 μg ml^−1 of menthol
Method: as §1
The leaves were also larger in the shoots regenerated on the medium containing 80 μg ml^−1 of menthol (Table 4).

[2] = test system: in vitro raised somaclones (shootlets); assay: Earlier screening of in vitro raised somaclones in medium containing toxic concentrations of menthol; assay type: cell-based, Mentha arvensis; details: above 70 μg ml^−1 in the medium
Method: The applicants earlier developed a protocol for screening high menthol yielding plants by inoculating the in vitro raised somaclones in medium containing toxic concentrations of menthol in the tissue culture medium (Patent pending). In this procedure, screening of 2850 variants yielded 30 clones surviving 70 μg ml^−1 of menthol concentration in the medium out of which only 5 stable clones could be isolated which were of high menthol content type in comparison to the parent variety ‘Himalaya’ (U.S. Pat No. PP 10935). […] At this point, the applicants planned experiments to subject the callus directly to menthol selection instead of the regenerated shoots to save on time, space and labour. The logic was to isolate the tolerant cell lines if any, growing from this callus later.

Mentha arvensis callus = assay: Shooting response of callus in different media; assay type: cell-based, Mentha arvensis L. cv. Himalaya
Excerpt: as §3, §4

Root pieces = assay: Response of other explants in different media: root pieces; assay type: cell-based, Mentha arvensis
Method: as §1, §2

CC1CCC(C(C)C)C(O)C1 (stereo not shown) [menthol]
Response of internodes (Internodes; MSO + 60 ppm menthol): Green | Response of internodes (Internodes; MSO + 70 ppm menthol): Green | Response of internodes (Internodes; MSO + 80 ppm menthol): Wilting | Toxic concentration at which the regenerated shoots die [1]: ≥ 80 µg/mL | Growth of menthol-induced shoots compared to shoots growing on other media (regenerated shoots): more vigorous in growth | Effect on shootlets of increasing menthol concentration further [2]: killed all the shootlets | Time to visible shoot induction from callus (Mentha arvensis callus; MSO medium containing menthol 80 μg ml^−1): 7 to 10 days | Response of transferred callus pieces (Mentha arvensis callus; text of Example 2, up to 21 days): induced shoot regeneration | Response of root pieces (Root pieces; MSO + 60 ppm menthol, 7 days): No change | Response of root pieces (Root pieces; MSO + 70 ppm menthol, 7 days): No change | Response of root pieces (Root pieces; MSO + 70 ppm menthol, 15 days): Wilting started | Response of root pieces (Root pieces; MSO + 80 ppm menthol, 7 days): Wilting | Response of root pieces (Root pieces; MSO + 80 ppm menthol, 15 days): Wilting
